We go through six compounds from PubChem BioAssay AID1963975 (Molecular Pharmacology Branch, DTP, NCI, 2024).

The structures appear in SMILES notation. Values joined by “and” are separate entries in the source; they are usually repeats but may differ in a detail not shown here. Identical values can stand only once.

The subject of the assay is 624824-186-R-J2-PDC multicell spheroids, viability. Briefly: Anticancer human tumor 624824-186-R-J2-PDC patient-derived colon adenocarcinoma cell line growth inhibition [PI3K]. To be noted: for viability, T/C: stronger effect = lower value. The gist of the method: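 Tumor cells grown as multi-cell spheroids with HUVEC endothelial cells and MSC fibroblast-like stroma were treated with targeted agents combined with inavolisib, alpelisib, duvelisib or copanlisib. Doses fell in half-log steps from near clinical Cmax, else from 10 microM. Viability was measured.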

The mark [1] stands for this setting: curve of first compound, second compound 0.0316 µM.
Where [2] appears, read: curve of first compound, second compound 0.1 µM.
Where [3] appears, read: curve of first compound, second compound 0.316 µM.
The mark [4] stands for this setting: curve of first compound, second compound 1 µM.
[5] abbreviates: second compound 0.0316 µM, first compound 0.00316 µM.
[6] abbreviates: second compound 0.0316 µM, first compound 0.01 µM.
The mark [7] stands for this setting: second compound 0.0316 µM, first compound 0.0316 µM.
[8] abbreviates: second compound 0.0316 µM, first compound 0.1 µM.
The mark [9] stands for this setting: second compound 0.0316 µM, first compound 0.316 µM.
Where [10] appears, read: second compound 0.0316 µM, first compound 1 µM.
Where [11] appears, read: second compound 0.1 µM, first compound 0.00316 µM.
[12] abbreviates: second compound 0.1 µM, first compound 0.01 µM.
The mark [13] stands for this setting: second compound 0.1 µM, first compound 0.0316 µM.
[14] abbreviates: second compound 0.1 µM, first compound 0.1 µM.
Where [15] appears, read: second compound 0.1 µM, first compound 0.316 µM.
Where [16] appears, read: second compound 0.1 µM, first compound 1 µM.
The mark [17] stands for this setting: second compound 0.316 µM, first compound 0.00316 µM.
Setting [18] is: second compound 0.316 µM, first compound 0.01 µM.
The mark [19] stands for this setting: second compound 0.316 µM, first compound 0.0316 µM.
The mark [20] stands for this setting: second compound 0.316 µM, first compound 0.1 µM.
Setting [21] is: second compound 0.316 µM, first compound 0.316 µM.
The mark [22] stands for this setting: second compound 0.316 µM, first compound 1 µM.
[23] abbreviates: second compound 1 µM, first compound 0.00316 µM.
Setting [24] is: second compound 1 µM, first compound 0.01 µM.
[25] abbreviates: second compound 1 µM, first compound 0.0316 µM.
The mark [26] stands for this setting: second compound 1 µM, first compound 0.1 µM.
[27] abbreviates: second compound 1 µM, first compound 0.316 µM.
[28] abbreviates: second compound 1 µM, first compound 1 µM.
[29] abbreviates: curve of first compound, second compound 3.16 µM.
Where [30] appears, read: curve of first compound, second compound 10 µM.
[31] abbreviates: second compound 3.16 µM, first compound 0.0316 µM.
The mark [32] stands for this setting: second compound 3.16 µM, first compound 0.1 µM.
Setting [33] is: second compound 3.16 µM, first compound 0.316 µM.
Where [34] appears, read: second compound 3.16 µM, first compound 1 µM.
Where [35] appears, read: second compound 10 µM, first compound 0.0316 µM.
The mark [36] stands for this setting: second compound 10 µM, first compound 0.1 µM.
The mark [37] stands for this setting: second compound 10 µM, first compound 0.316 µM.
Where [38] appears, read: second compound 10 µM, first compound 1 µM.
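Further: spheroids exposed to agents for 7 days before viability read.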
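Wherever viability, T/C is given: 100% = DMSO vehicle treated spheroids.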

Broadly, the IC50 is the point on the concentration scale where inhibition reaches its midpoint. In general, viability, T/C refers to the result in the treated group divided by that in the control group, in per cent. In the case of `CCN1CCN(Cc2ccc(Nc3ncc(F)c(-c4cc(F)c5nc(C)n(C(C)C)c5c4)n3)nc2)CC1` + CC(Nc1ccc2c(c1)OCCn1cc(N3C(=O)OCC3C(F)F)nc1-2)C(N)=O, the IC50 is greater than 1 µM (curve of first compound, second compound 0.00316 µM); greater than 1 µM (curve of first compound, second compound 0.01 µM); greater than 1 µM under setting [1]; greater than 1 µM under setting [2]; greater than 1 µM under setting [3]; greater than 1 µM under setting [4]. In addition, the viability, T/C is 92.9% (second compound 0.00316 µM, first compound 0.00316 µM); 87.8% (second compound 0.00316 µM, first compound 0.01 µM); 80.5% (second compound 0.00316 µM, first compound 0.0316 µM); 105% (second compound 0.00316 µM, first compound 0.1 µM); 91.5% (second compound 0.00316 µM, first compound 0.316 µM); 118% (second compound 0.00316 µM, first compound 1 µM). In addition, the viability, T/C is, setting by setting: (second compound 0.01 µM, first compound 0.00316 µM) 97.7%; (second compound 0.01 µM, first compound 0.01 µM) 98.2%; (second compound 0.01 µM, first compound 0.0316 µM) 114%; (second compound 0.01 µM, first compound 0.1 µM) 89.2%; (second compound 0.01 µM, first compound 0.316 µM) 92.1%; (second compound 0.01 µM, first compound 1 µM) 106%. Also, the viability, T/C was 77.1% under setting [5]; 86.4% under setting [6]; 83.5% under setting [7]; 76.3% under setting [8]; 97.8% under setting [9]; 105% under setting [10]. Moreover, the viability, T/C is 93.4% under setting [11]; 77.6% under setting [12]; 86.4% under setting [13]; 77.3% under setting [14]; 89.4% under setting [15]; 119% under setting [16]. Besides, the viability, T/C runs as follows: under setting [17], 102%; under setting [18], 89%; under setting [19], 87.2%; under setting [20], 92.4%; under setting [21], 90.1%; under setting [22], 105%. Moreover, the viability, T/C reads like this: under setting [23], 85.6%; under setting [24], 83.7%; under setting [25], 90.9%; under setting [26], 85.8%; under setting [27], 87.2%; under setting [28], 96.3%.

With `C#Cc1c(F)ccc2cc(O)cc(-c3ncc4c(N5CC6CCC(C5)N6)nc(OCC56CCCN5CC(F)C6)nc4c3F)c12` (stereo not drawn) + Cc1nc(NC(=O)N2CCCC2C(N)=O)sc1-c1ccnc(C(C)(C)C(F)(F)F)c1, the IC50 is greater than 10 µM under setting [1]; greater than 10 µM under setting [2]; greater than 10 µM under setting [3]; greater than 10 µM under setting [4]; greater than 10 µM under setting [29]; greater than 10 µM under setting [30]. Further, the viability, T/C is, setting by setting: under setting [7], 86.3%; under setting [8], 82.9%; under setting [9], 70.8%; under setting [10], 80.9%; (second compound 0.0316 µM, first compound 3.16 µM) 96.7%; (second compound 0.0316 µM, first compound 10 µM) 71%. Moreover, the viability, T/C by setting is: under setting [13], 90.9%; under setting [14], 83.5%; under setting [15], 73%; under setting [16], 76.6%; (second compound 0.1 µM, first compound 3.16 µM) 88.6%; (second compound 0.1 µM, first compound 10 µM) 60.4%. For the same compound, the viability, T/C is 74.4% under setting [19]; 67.2% under setting [20]; 81.1% under setting [21]; 84.2% under setting [22]; 70.9% (second compound 0.316 µM, first compound 3.16 µM); 73.2% (second compound 0.316 µM, first compound 10 µM). The viability, T/C was 97% under setting [25]; 82.7% under setting [26]; 76.1% under setting [27]; 82.1% under setting [28]; 79.8% (second compound 1 µM, first compound 3.16 µM); 82.2% (second compound 1 µM, first compound 10 µM). Moreover, the viability, T/C was 78.3% under setting [31]; 83.8% under setting [32]; 69.5% under setting [33]; 81.8% under setting [34]; 81.2% (second compound 3.16 µM, first compound 3.16 µM); 71.5% (second compound 3.16 µM, first compound 10 µM). Further, the viability, T/C under setting [35] was 73.7%; the viability, T/C under setting [36] is 74.2%; the viability, T/C under setting [37] was 60%; the viability, T/C under setting [38] was 58.5%; the viability, T/C (second compound 10 µM, first compound 3.16 µM) was 58%; the viability, T/C (second compound 10 µM, first compound 10 µM) is 56.3%.

With `CCCS(=O)(=O)Nc1ccc(F)c(C(=O)c2c[nH]c3ncc(-c4ccc(Cl)cc4)cc23)c1F`, the viability, T/C reads like this: (compound 0.0316 µM) 90.4% [middle of 4 runs]; (compound 0.1 µM) 90.6% [middle of 4 runs]; (compound 0.316 µM) 88% [middle of 4 runs]; (compound 3.16 µM) 122% [middle of 4 runs]; (compound 10 µM) 52.3% [middle of 4 runs]. Besides, the IC50 (curve of compound) is 9.53 µM and > 10 µM and 9.39 µM.

Turning to `CNC(=O)c1ccc(N2C(=S)N(c3ccc(C#N)c(C(F)(F)F)c3)C(=O)C2(C)C)cc1F`, the IC50 (curve of compound) was greater than 10 µM.

`CC(C)NCC(C(=O)N1CCN(c2ncnc3c2C(C)CC3O)CC1)c1ccc(Cl)cc1` (stereo not drawn): the viability, T/C was 92.5% [middle of 4 runs] (compound 0.1 µM), 84.4% [middle of 4 runs] (compound 0.316 µM), 88.5% [middle of 4 runs] (compound 3.16 µM) and 85.7% [middle of 4 runs] (compound 10 µM). Also, where the note is “curve of compound”, the IC50 is greater than 10 µM.

With `CCN1CCN(Cc2ccc(Nc3ncc(F)c(-c4cc(F)c5nc(C)n(C(C)C)c5c4)n3)nc2)CC1` + Cc1nc(NC(=O)N2CCCC2C(N)=O)sc1-c1ccnc(C(C)(C)C(F)(F)F)c1, the IC50 under setting [1] is greater than 1 µM; the IC50 under setting [2] is greater than 1 µM; the half-inhibitory concentration (IC50) under setting [3] was greater than 1 µM; the IC50 under setting [4] was greater than 1 µM; the concentration for half-maximal inhibition (IC50) under setting [29] was greater than 1 µM; the IC50 under setting [30] is greater than 1 µM. For the same compound, the viability, T/C is, setting by setting: under setting [5], 95.9%; under setting [6], 92.4%; under setting [7], 87.3%; under setting [8], 72.8%; under setting [9], 75.5%; under setting [10], 102%. The viability, T/C is, setting by setting: under setting [11], 85.8%; under setting [12], 81.7%; under setting [13], 67.9%; under setting [14], 82.8%; under setting [15], 87%; under setting [16], 92.8%. Also, the viability, T/C is, setting by setting: under setting [17], 91.4%; under setting [18], 79.2%; under setting [19], 63.6%; under setting [20], 76.6%; under setting [21], 92%; under setting [22], 88.7%. For the same compound, the viability, T/C reads like this: under setting [23], 63.2%; under setting [24], 77.3%; under setting [25], 76.5%; under setting [26], 80.2%; under setting [27], 86%; under setting [28], 95.2%. In addition, the viability, T/C (second compound 3.16 µM, first compound 0.00316 µM) is 72.2%; the viability, T/C (second compound 3.16 µM, first compound 0.01 µM) is 93%; the viability, T/C under setting [31] is 78.7%; the viability, T/C under setting [32] is 68.6%; the viability, T/C under setting [33] is 79.4%; the viability, T/C under setting [34] was 82.4%. In addition, the viability, T/C reads like this: (second compound 10 µM, first compound 0.00316 µM) 63.8%; (second compound 10 µM, first compound 0.01 µM) 66.1%; under setting [35], 70.7%; under setting [36], 53%; under setting [37], 65.2%; under setting [38], 74.9%.
